Values of other authors, collected in patent US20110144117A1, “Pharmaceutical Dosage Form Containing Tetrahydrobiopterin” (OrPha Swiss GmbH, priority 2008, published 2011).

Tests used:
[1] = in pure water
[2] = test system: patient with a dihydrobiopterin deficiency; details: single dose, patient with dihydrobiopterin deficiency (Niederwieser et al.)
[3] = test system: patients exhibiting mutations in the PAH gene; details: dietary supplementation, patients with mutations in the PAH gene (Kure et al.)

| Structure (SMILES) | solubility [1] | symptoms of hyperphenylalaninemia [2] | phenylalanine blood plasma concentration [3] |
| --- | --- | --- | --- |
| C[C@H](O)C(=O)C1=Nc2c(nc(N)[nH]c2=O)NC1 [L-sepiapterin] | 0.17 g/100 g H2O | transiently disappeared | – |
| CC(O)C(O)C1CNc2nc(N)[nH]c(=O)c2N1 (stereo not drawn) [tetrahydrobiopterin, 5,6,7,8-tetrahydro-biopterin] | – | – | reduces |
